Consider 3 molecules from patent US9023789B2, “Amylin analogs and pharmaceutical compositions thereof” (Novo Nordisk A/S, priority 2012, dated 2015).

Assay [1] concerns the target T1, human amylin receptor (membranes from Amylin 3(a)/CRE-luc cells) (Homo sapiens, UniProt O60896+P30988).
T1 construct: expressed in transfected cells
T1 sequence (P30988 25-474): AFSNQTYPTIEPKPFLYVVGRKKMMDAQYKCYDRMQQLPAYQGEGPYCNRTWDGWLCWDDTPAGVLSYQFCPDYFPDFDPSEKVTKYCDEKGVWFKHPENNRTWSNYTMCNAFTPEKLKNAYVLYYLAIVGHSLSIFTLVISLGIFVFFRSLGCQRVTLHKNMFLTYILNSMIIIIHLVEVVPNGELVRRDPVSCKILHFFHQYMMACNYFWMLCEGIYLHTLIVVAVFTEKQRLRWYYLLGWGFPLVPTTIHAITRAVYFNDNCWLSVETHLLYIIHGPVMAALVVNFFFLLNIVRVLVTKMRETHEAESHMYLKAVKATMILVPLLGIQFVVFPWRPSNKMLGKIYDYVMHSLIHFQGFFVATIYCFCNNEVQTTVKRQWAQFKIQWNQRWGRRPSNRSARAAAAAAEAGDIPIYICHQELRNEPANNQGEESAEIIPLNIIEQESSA
T1 sequence (O60896 24-148 partner): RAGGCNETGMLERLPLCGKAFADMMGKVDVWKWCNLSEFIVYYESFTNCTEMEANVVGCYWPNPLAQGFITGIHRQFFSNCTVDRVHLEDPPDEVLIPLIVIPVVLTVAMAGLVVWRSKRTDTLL
As to the kind of experiment: ASSAY (V) binding to the human amylin receptor (SPA, 125I-rat amylin).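 Note: competition binding of cell membranes (35 ng/µL) mixed with SPA beads in 384-well plates at 40 µL total volume, read by scintillation counting.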

In the next assay the target is T2, rat calcitonin receptor (Rattus norvegicus, UniProt P32214).
T2 construct: expressed in transfected cells; host or cells: BHK tk'ts 13 (transient, FuGENE 6), membranes
T2 sequence (P32214 25-479 isoform P32214-2 limits assumed): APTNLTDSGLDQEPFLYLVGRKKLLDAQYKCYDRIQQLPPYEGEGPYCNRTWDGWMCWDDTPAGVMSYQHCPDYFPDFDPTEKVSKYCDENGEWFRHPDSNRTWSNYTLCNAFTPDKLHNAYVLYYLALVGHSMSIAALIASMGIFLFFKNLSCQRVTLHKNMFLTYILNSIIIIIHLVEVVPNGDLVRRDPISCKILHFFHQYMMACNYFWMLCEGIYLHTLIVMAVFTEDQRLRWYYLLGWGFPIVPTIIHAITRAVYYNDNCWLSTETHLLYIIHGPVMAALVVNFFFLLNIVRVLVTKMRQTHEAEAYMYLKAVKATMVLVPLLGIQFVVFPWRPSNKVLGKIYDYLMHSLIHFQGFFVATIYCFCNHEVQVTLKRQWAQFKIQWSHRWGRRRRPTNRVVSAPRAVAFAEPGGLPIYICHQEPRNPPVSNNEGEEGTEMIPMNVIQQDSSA
Briefly: ASSAY (VIII) binding to the rat calcitonin receptor. The settings on record: Table 7, read-out: rCTR bind IC50. The method in brief: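 Cell membranes for binding came from BHK tk′ts 13 cells harvested approximately 48 hours after transient transfection with the rat receptor.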

In the next assay the test system is Sprague Dawley (SD) rats. Briefly: ASSAY (I) efficacy testing on appetite (food intake) using an ad libitum fed rat model. Type of assay: in vivo. The settings on record: rat. The method in brief: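 Individual food consumption was logged each hour up to 7 h and again at 24 h, occasionally 48 h, with Grubbs-test outliers removed. Each 200–250 g Sprague Dawley rat, free-feeding in its home cage under reversed lighting, received a single ip, po or sc dose of 0.01–3 mg/kg at lights-off, alongside a vehicle group.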

For assay [2], the target named is T3, human amylin 3(a) receptor (human calcitonin receptor + RAMP-3) in BHK570 cells (Homo sapiens, UniProt O60896+P30988).
T3 construct: expressed in transfected cells
As to the kind of experiment: ASSAY (II)a functional assay, human amylin receptor (CRE luciferase). Type of assay: cell-based. The method in brief:
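Functional agonism was measured by CRE-luciferase reporter luminescence in BHK cells bearing calcitonin receptor, or calcitonin receptor plus RAMP-3 as the amylin 3(a) receptor. Stimulation lasted 3 hours at 37° C.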

Setting [3] is: Table 5, selectivity, hCTR bind IC50 / hAmylin-R bind IC50.
Setting [4] is: Table 5a, selectivity, hCTR bind IC50 / hAmylin-R bind IC50.
Where [5] appears, read: Table 5b, selectivity, hCTR bind IC50 / hAmylin-R bind IC50.
[6] abbreviates: Table 5c, selectivity, hCTR bind IC50 / hAmylin-R bind IC50.
Setting [7] is: Table 7, human binding selectivity, included for comparison.
Setting [8] is: Table 7a (preferred compounds), human binding selectivity, included for comparison.
[9] abbreviates: ratio of human calcitonin receptor binding IC50 to human amylin receptor binding IC50.
Where [10] appears, read: hCTR funct. EC50 divided by hAmylin-R funct. EC50.
Setting [11] is: hCTR funct. EC50 over hAmylin-R funct. EC50.
[12] abbreviates: human functional selectivity: hCTR funct. EC50 / hAmylin-R funct. EC50.

Numbered stars: 1 amine (or outer) side, 2 acyl side, 3 side chain; on linkers, the order of the positions; unused ones are H or OH. Bridge positions count the residues as written; N and C are the ends. Side chains are listed from the residue outwards. Peptide text beside a SMILES is read from it. * marks the point of attachment. C20 diacid = O=C(O)CCCCCCCCCCCCCCCCCCC(=O)*; γGlu = O=C(O)[C@H](CCC(=O)[*:2])N[*:1]

A word on the IC50: it is the point on the concentration scale where inhibition reaches its midpoint. Regarding `CC[C@H](C)[C@H](NC(=O)[C@H](C)NC(=O)CNC(=O)[C@H](Cc1ccccc1)NC(=O)[C@H](CC(N)=O)NC(=O)[C@@H]1CCCN1C(=O)[C@H](CO)NC(=O)[C@H](CO)NC(=O)[C@H](Cc1c[nH]cn1)NC(=O)[C@H](CCCNC(=N)N)NC(=O)[C@H](CC(C)C)NC(=O)[C@H](Cc1ccccc1)NC(=O)[C@H](CC(=O)O)NC(=O)[C@H](C)NC(=O)[C@H](CC(C)C)NC(=O)[C@H](CCCNC(=N)N)NC(=O)[C@H](CCC(N)=O)NC(=O)[C@@H](NC(=O)[C@H](C)NC(=O)[C@@H]1CSSC[C@H](NC(=O)[C@@H](N)CCCCNC(=O)CC[C@H](NC(=O)CC[C@H](NC(=O)CCCCCCCCCCCCCCCCCCC(=O)O)C(=O)O)C(=O)O)C(=O)N[C@@H](CC(N)=O)C(=O)N[C@@H]([C@@H](C)O)C(=O)N[C@@H](C)C(=O)N[C@@H]([C@@H](C)O)C(=O)N1)[C@@H](C)O)C(=O)N1CCC[C@H]1C(=O)N[C@@H](CO)C(=O)N[C@@H](CO)C(=O)N[C@H](C(=O)N[C@@H](CC(N)=O)C(=O)N[C@H](C(=O)NCC(=O)N[C@@H](CO)C(=O)N[C@@H](CC(=O)O)C(=O)N[C@H](C(=O)N[C@@H](Cc1ccc(O)cc1)C(N)=O)[C@@H](C)O)C(C)C)[C@@H](C)O` [Example 2] (H-K([γGlu-γGlu-C20 diacid])CNTATCATQRLADFLRHSSPNFGAIPSSTNVGSDTY-NH2; disulfide 2-7; N-terminus assumed), the “Ratio hCT/hAmylin binding” value in assay [1] (setting [3]), in assay [1] (setting [4]), in assay [1] (setting [5]), in assay [1] (setting [6]), in assay [1] (setting [7]) and in assay [1] (setting [8]) was 47.5 in each case. Further, the “Ratio hCT/hAmylin binding” value in assay [1] (setting [9]) is listed as 47.5. In addition, the IC50 on rat calcitonin receptor is 108 nM. In addition, the “Food intake reduction 0-24 h 3 nmol/kg (%)” value with Sprague Dawley (SD) rats (3 nmol/kg, 0-24 h) amounted to 39%. Moreover, the “Food intake reduction 24-48 h 3 nmol/kg (%)” value with Sprague Dawley (SD) rats (3 nmol/kg, 24-48 h) amounted to 10%. Moreover, the “Food intake reduction 0-24 h 30 nmol/kg (%)” value with Sprague Dawley (SD) rats (0-24 h) is 72%. The “Food intake reduction 24-48 h 30 nmol/kg (%)” value in the assay on Sprague Dawley (SD) rats (24-48 h) was found to be 62%. The “Ratio hCT/hAmylin funct.” value in assay [2] (setting [10]), in assay [2] (setting [11]) and in assay [2] (setting [12]) was 16.4 each time.

As to `CC[C@H](C)[C@H](NC(=O)[C@H](C)NC(=O)CNC(=O)[C@H](Cc1ccccc1)NC(=O)[C@H](CC(N)=O)NC(=O)[C@@H]1CCCN1C(=O)[C@H](CO)NC(=O)[C@H](CO)NC(=O)[C@H](Cc1c[nH]cn1)NC(=O)[C@H](CCCNC(=N)N)NC(=O)[C@H](CC(C)C)NC(=O)[C@H](Cc1ccccc1)NC(=O)[C@H](CC(N)=O)NC(=O)[C@H](C)NC(=O)[C@H](CC(C)C)NC(=O)[C@H](CCCNC(=N)N)NC(=O)[C@H](CCC(N)=O)NC(=O)[C@@H](NC(=O)[C@H](C)NC(=O)[C@@H]1CSSC[C@H](NC(=O)[C@H](CCCCN)NC(=O)COCCOCCNC(=O)COCCOCCNC(=O)CC[C@H](NC(=O)CCCCCCCCCCCCCCCCCCC(=O)O)C(=O)O)C(=O)N[C@@H](CC(N)=O)C(=O)N[C@@H]([C@@H](C)O)C(=O)N[C@@H](C)C(=O)N[C@@H]([C@@H](C)O)C(=O)N1)[C@@H](C)O)C(=O)N1CCC[C@H]1C(=O)N[C@@H](CO)C(=O)N[C@@H](CO)C(=O)N[C@H](C(=O)N[C@@H](CC(N)=O)C(=O)N[C@H](C(=O)NCC(=O)N[C@@H](CO)C(=O)N[C@@H](CC(N)=O)C(=O)N[C@H](C(=O)N[C@@H](Cc1ccc(O)cc1)C(N)=O)[C@@H](C)O)C(C)C)[C@@H](C)O` [Example 24], the “Ratio hCT/hAmylin binding” value in assay [1] (setting [3]), in assay [1] (setting [4]), in assay [1] (setting [5]), in assay [1] (setting [6]), in assay [1] (setting [7]) and in assay [1] (setting [8]) was 90.0 in each case. Also, the “Ratio hCT/hAmylin binding” value in assay [1] (setting [9]) was 90.0. For the same molecule, the IC50 at rat calcitonin receptor came to 350 nM. In the assay on Sprague Dawley (SD) rats (0-24 h), the “Food intake reduction 0-24 h 30 nmol/kg (%)” value worked out at 22%. In the assay on Sprague Dawley (SD) rats (24-48 h), the “Food intake reduction 24-48 h 30 nmol/kg (%)” value is reported as 1%. Besides, the “Ratio hCT/hAmylin funct.” value in assay [2] (setting [10]), in assay [2] (setting [11]) and in assay [2] (setting [12]) was 23.1 each time.

With `CC[C@H](C)[C@H](NC(=O)[C@H](C)NC(=O)CNC(=O)[C@H](Cc1ccccc1)NC(=O)[C@H](CC(N)=O)NC(=O)[C@@H]1CCCN1C(=O)[C@H](CO)NC(=O)[C@H](CO)NC(=O)[C@H](Cc1c[nH]cn1)NC(=O)[C@H](CCCNC(=N)N)NC(=O)[C@H](CC(C)C)NC(=O)[C@H](Cc1ccccc1)NC(=O)[C@H](Cc1c[nH]cn1)NC(=O)[C@H](C)NC(=O)[C@H](CC(C)C)NC(=O)[C@H](CCCNC(=N)N)NC(=O)[C@H](CCC(N)=O)NC(=O)[C@@H](NC(=O)[C@H](C)NC(=O)[C@@H]1CSSC[C@H](NC(=O)[C@H](CCCCN)NC(=O)CC[C@H](NC(=O)CCCCCCCCCCCCCCCCCCC(=O)O)C(=O)O)C(=O)N[C@@H](CC(N)=O)C(=O)N[C@@H]([C@@H](C)O)C(=O)N[C@@H](C)C(=O)N[C@@H]([C@@H](C)O)C(=O)N1)[C@@H](C)O)C(=O)N1CCC[C@H]1C(=O)N[C@@H](CO)C(=O)N[C@@H](CO)C(=O)N[C@H](C(=O)N[C@@H](CC(N)=O)C(=O)N[C@H](C(=O)NCC(=O)N[C@@H](CO)C(=O)N[C@@H](CCC(=O)O)C(=O)N[C@H](C(=O)N[C@@H](Cc1ccc(O)cc1)C(N)=O)[C@@H](C)O)C(C)C)[C@@H](C)O` [Example 30] ({C20 diacid-γGlu}-KCNTATCATQRLAHFLRHSSPNFGAIPSSTNVGSETY-NH2; disulfide 2-7), the “Ratio hCT/hAmylin binding” value in assay [1] (setting [3]), in assay [1] (setting [4]), in assay [1] (setting [5]), in assay [1] (setting [6]), in assay [1] (setting [7]) and in assay [1] (setting [8]) was 23.6 throughout. The “Ratio hCT/hAmylin binding” value in assay [1] (setting [9]) turned out to be 23.6. In addition, on rat calcitonin receptor, the IC50 amounted to 114 nM. The “Food intake reduction 0-24 h 30 nmol/kg (%)” value in the assay on Sprague Dawley (SD) rats (0-24 h) is recorded as 41%. Besides, in the assay on Sprague Dawley (SD) rats (24-48 h), the “Food intake reduction 24-48 h 30 nmol/kg (%)” value amounted to 17%. Also, the “Ratio hCT/hAmylin funct.” value in assay [2] (setting [10]), in assay [2] (setting [11]) and in assay [2] (setting [12]) was 12.6 each time.
